Entries after “also recorded” stand apart in the source; their conditions may differ.
Tests used:
[1] = tested on: PI3K/Akt signaling pathway in Ramos; assay: Western blot of phosphorylated and unphosphorylated Akt / NF-κB pathway proteins in Ramos; assay type: cell-based, human; settings: rituximab 138 nM or (Fab′)2, 20 h
Method: After stimulation, cells (2×10^6 cells) were collected and resuspended with lysis buffer (20 mM Tris-HCl (pH 8.0), 2 mM EDTA, 3% NP-40, 100 mM NaCt, 50 mM NaF, 1 uM PMSF, 1 uM VO4, 5 ug/ml aprotinin, 5 ug/ml leupeptin). After 30 min of incubation on ice, samples were centrifuged at 10,000×g, for 10 min at 4° C. to remove cellular debris. […] The membranes were blocked for 30 min with 5% non-fat dry milk diluted in 0.05% Tween-20 Tris-buffered saline at room temperature and incubated overnight with the primary antibodies. After incubation with the primary antibody against Akt (1:300), Bad, PDK1, (1:500), phospho-specific antibodies against phospho-Akt (Ser 473, Thr 308) (1:300), phospho-PDK1 and phospho-Bad (Serl 36) (both 1:300) for overnight, the membranes were washed and incubated with HRP-coupled secondary antibodies (Cell Signaling, MA, USA). Immunoreactive bands were detected using an enhanced chemiluminiscence system (Amersham Pharmacia Biotech, UK).

Ramos cells = assay: PI flow cytometry apoptosis, chemosensitization of Ramos; assay type: cell-based, human; settings: pretreatment then CDDP 15 μg/ml 24 h
Method: The cells were then washed and fresh medium was added and seeded into 12 well plates (Costar, Cambridge, Mass.). Indicated concentrations of drugs (CDDP, ADR) were then added, and the cells were incubated for another 24 h for maximal cytotoxicity. At the end of the incubation period, the cells were harvested and subjected to propidium iodide (PI) (Molecular Probes, Leiden, Netherlands) staining according to the specifications of the PI staining kit (Roche Diagnostics Corporation, Indianapolis, Ind.) and evaluated by flow cytometric analysis. LY294002 was dissolved in DMSO (Sigma-Aldrich) and added up to 50 uM.
DNA fragmentation was detected by flow cytometric analysis after propidium iodide staining (Alas, S. et al., Cancer Res., 61:5137-44 (2001)). Cells with fragmented DNA were considered as apoptotic. […] Fluorescence was measured on a FACScan flow cytometer (BD Immunocytometry Systems) within 1 h. […] Cellular debris were excluded from analysis by raising the forward scatter threshold, and the DNA content of the intact nuclei was recorded on a logarithmic scale. […]
Ramos B-NHL cells were cultured in 1 ml of Opti-MEM medium without antibiotics and FBS. […] To determine Akt siRNA-induced sensitization to CDDP-induced apoptosis, following transfection the cells were treated with CDDP for 24 h, then fixed and permeabilized for PI staining, and analyzed by flow cytometry as described above.

Ramos-RR1 = assay: DNA fragmentation (PI) apoptosis assay, Ramos-RR1
Method: (§1) Percentage of apoptotic cells was determined by evaluation of propidium iodide (PI) stained preparations of cells using an EpicXL flow-cytometer. Cellular debris was excluded from analysis by raising the forward scatter threshold, and DNA content of the intact nuclei was recorded on a logarithmic scale (Nicoletti, I. et al., J. Immunol. Methods, 139:271-9 (1991)). Percent apoptosis is represented as percentage of hypodiploid cells accumulated at sub-G0 phase of cell cycle.
(§2) Cells were left either untreated or pre-treated with DHMEQ (36), bortezomib (Goy, A. et al., Clin. Lymphoma, 4:230-7 (2004)) and PD098059 (Alessi, D. et al., J. Biol. Chem., 270:27489-94 (1995)). Escalating concentrations of various drugs were then added and the percentage of apoptosis was measured.

Daudi-RR1 = assay: DNA fragmentation (PI) apoptosis assay, Daudi-RR1
Method: as §1, §2

NF-κB and AP-1 DBA = assay: EMSA in RR clones; assay type: cell-based, human
Method: FIG. 8. […] A. Total cell lysates (40 μg) were subjected to western blot analysis using phospho-specific Abs for various components of the NF-κB and ERK1/2 pathways. B. The kinase activity of the IKK complex using IκB-α peptide (aa 1-50 including S^32/36) and ERK1/2 using MAPK kinase substrates 4 (aa 172-192) using immune-complex kinase assay. C. […] 10 μg of nuclear lysates were subjected to EMSA (n=2) (19, 20).
The DBAs were evaluated using biotin-labeled oligonucleotide AP-1 (5′-[…]-3′) (Lee, W et al., Cell, 49:741-52 (1987)) and NF-κB (5′-[…] […]-3′) probes (Harada, H. et al., Mol. Cell Biol., 14:1500-9 (1994)) using EMSA kit (Panomics, Inc., Redwood City, Calif.) according to manufacturer's instructions. 10 μg of nuclear extracts were subjected to […] 5% PAGE and developed (Jazirehi, A. et al., Cancer Research, 64:7117-26 (2004); Jazirehi, A. et al., Cancer Research, 65:264-76 (2005)).
Next, alterations in the DBA of NF-κB and AP-1 in the clones were examined.

[2] = tested on: 2F7, Ramos and Daudi wild type and RR clones; assay: TRAIL-mediated apoptosis in B-NHL cell lines and RR clones (DNA fragmentation); assay type: cell-based, human; settings: inhibitor pretreatment 2 h, then TRAIL 18 h; rituximab-sensitive and -resistant cells
Description: Patients with B-NHL respond initially to conventional chemotherapy and/or to immunotherapy with rituximab (alone or in combination with chemotherapy). However, patients develop resistance to these modalities and novel approaches are needed. TRAIL is a cytotoxic molecule that exerts selective anti-tumor cytotoxic activity with minimal toxicity to normal tissues. Further, TRAIL or agonist monoclonal antibody (mAb) to TRAIL receptors, DR4 and DR5, are currently being tested clinically. The present study investigated the sensitivity of B-NHL cell lines to TRAIL-mediated apoptosis using the AIDS-related NHL (ARL) B-cell line, 2F7, and the B-NHL cell lines, Ramos and Daudi. Also, to recapitulate various aspects of acquired rituximab-resistance, we have generated rituximab-resistant (RR) clones from the parental wild type (wt) cells. […] We then examined means to reverse […] resistance. We and others have reported that inhibition of NFκB activity can sensitize TRAIL-resistant tumor cells to TRAIL-induced apoptosis. […] Both the rituximab-sensitive and rituximab-resistant tumor cells were sensitized by these inhibitors, though higher concentrations were required for sensitization of the RR clones. […] Based on the findings, patients with resistant B-NHL can be treated with combination of TRAIL/anti-DR4 or DR5 mAb and NFκB inhibitors. Alternatively, these patients can be treated with agents that up-regulate TRAIL expression on host effectors (e.g., T cells, NK cells) in combination with NFκB inhibitors.

2F7RR1 clone = assay: Chemotherapeutic drug-induced apoptosis in 2F7RR1; assay type: cell-based
Description: (§3) Accordingly, we examined whether inhibition of Bcl-2 in 2F7RR1 can reverse chemoresistance. Since Bcl-2 is under the transcriptional regulation of NFκB, we examined the effect of the NF-κB inhibitors Bortezomib and DHMEQ (Kikuchi, et al., Cancer Research, 63:107 (2003)).
(§4) The mechanism by which B-NHL patients resist treatment is not known. […] We examined the effect of various chemical inhibitors of this signaling pathway on chemosensitization.

[3] = tested on: p38MAPK/NF-κB/YY1/STAT3 signaling pathways, Bcl-2; assay: Molecular analysis of signaling in 2F7RR1; assay type: cell-based; settings: 2F7-RR1
Description: as §3, §4

RR clones = assay: DNA fragmentation apoptosis assay, RR clones (pooled statements); assay type: cell-based, human; settings: drugs e.g. Paclitaxel, Vincristine, VP-16, CDDP, Adriamycin
Method: Thus, we examined if such sensitizing agents can reverse the resistance in the RR clones.
as §1, §2

## Rituximab (Fab′)2: Fc-devoid Rituximab (Fab′)2
[1]
  effect on p-Akt (western): also inhibited p-Akt like rituximab
Ramos cells
  sensitization to CDDP-induced apoptosis: sensitize the cells significantly

## O=C(NC1=CC(=O)[C@H]2O[C@H]2[C@H]1O)c1ccccc1O [DHMEQ, dehydroxymethylepoxyquinomicin]
Ramos-RR1
  enhanced cytotoxicity of drugs by inhibitor: 2.3-5.1 folds
Ramos-RR1; Ramos-RR1, DHMEQ 20 μg/ml
  apoptosis, DHMEQ alone: 10.1±2.1%
Daudi-RR1
  enhanced cytotoxicity of drugs by inhibitor: 1.4-3.3 folds
Daudi-RR1; Daudi-RR1, DHMEQ 20 μg/ml
  apoptosis, DHMEQ alone: 4.9±1.6%
NF-κB and AP-1 DBA
  NF-κB and AP-1 DBA (EMSA): preferentially reduced
[2]
  sensitization to TRAIL-induced apoptosis: significant augmentation of apoptosis and synergy was achieved
2F7RR1 clone
  chemosensitization to drug-induced apoptosis (taxol, vincristine, ADR, CDDP, VP16): reversal of resistance; also recorded: significantly sensitized
[3]
  effect on NF-kB, YY1 and Bcl-2 expression: inhibition of NF-kB, YY1 and downregulated Bcl-2 expression
RR clones
  sensitization of RR clones to various chemotherapeutic drugs: sensitized

Reference: US20090203050A1 (The Regents of the University of California, priority 2005, published 2009)
